Data published in US7850970B2, “Inhibitors of serine protease activity and their use in methods and compositions for treatment of bacterial infections” (priority 2003, dated 2010).
Where “and” joins values, the source holds several entries; their conditions need not be identical. Equal values may be shown once. Residues, ends and D or L forms follow the SMILES beside them. *: point of attachment. CH2Cl = ClC*

Columns and labels:
TB (strain H37RV) [1] = assay type: cell-based, m. tuberculosis; details: AAT 5.0 mg/ml-exposed MDM; control MDM (no AAT) 20% and 17%
TB (strain H37RV) [2] = assay type: cell-based, m. tuberculosis
[3] = tested on: MAC (strain Mycobacterium avium 9141); test: MAC infection of human monocyte-derived macrophages, direct observation and counting of infected cells; assay type: cell-based; details: AAT 5.0 mg/ml-exposed MDM, control MDM (no AAT) 17%
[4] = tested on: MAC (strain Mycobacterium avium 9141); test: MAC infection of human monocyte-derived macrophages, colony counts; assay type: cell-based; details: FIG. 1
interleukin-1 beta = test: Stimulated interleukin-1 beta production in whole human blood; assay type: cell-based; details: whole human blood diluted 1:4, heat-killed Staphylococcus epidermidis 1:1000, 24 hrs, all concentrations tested, FIG. 5
Description: Design: Venipuncture was performed on 3 healthy volunteers using a 21-gauge needle, and the venous blood was aspirated into a heparinized tube. Blood was then aliquoted into 6 milliliter polypropylene tubes and diluted 1:4 with sterile RPMI tissue culture medium alone (Control), diluted 1:4 in medium containing heat-killed Staphylococcus epidermidis at a final concentration of 1:1000 as a stimulus (Staph), or into tubes containing Staphylococcus epidermidis and alpha-1-antitrypsin (AAT, Aralast® from Baxter). All cultures were then incubated ×24 hrs at 37° C./5% CO2). Following incubation, the samples were centrifuged ×1,500 g, and the supernatants collected. Supernatants were assayed for interleukin-1 beta concentration using a validated electrochemiluminescence apparatus that quantifies cytokine proteins.

| Molecule | percent of cells infected with m. tuberculosis (TB (strain H37RV) [1]) | TB counts per ml (TB (strain H37RV) [2]; AAT-exposed MDM cultures, control MDM cultures 1.6×10^5 per ml) | inhibitory effect on cell-associated TB counts (TB (strain H37RV) [2]; AAT-exposed versus control MDM cultures) | percent of cells infected [3] | inhibition of infection of MDM with MAC (mean effect) ([4]; 4 separate experiments) | Staph-stimulated interleukin-1 beta production (interleukin-1 beta) | effect on MAC infection of MDM [4] |
| --- | --- | --- | --- | --- | --- | --- | --- |
| α1-antitrypsin [AAT] | 4% and 6% | 0.57×10^5 per ml | 64% | 10% | approximately 55% | significantly inhibited | – |
| CC(C)[C@H](NC(=O)[C@@H]1CCCN1C(=O)[C@H](C)NC(=O)[C@H](C)N)C(=O)CCl [AAT mimic, ala-ala-pro-val-chloromethyl ketone, reference compound] (H-AAPV-CH2Cl) | – | – | – | – | – | – | confirm the AAT data |
